Here are results for 89 compounds from a melting point compilation (Tetko et al.; mined from patent text by program, amines drawn as free bases though some values may be those of a salt).

In general, melting point refers to the temperature, or range, at which the solid turns liquid. As to `COc1ccc2[nH]c(S(=O)Cc3c(N)cc(C)c(OC)c3C)nc2c1` (centres undefined), the melting point lay in the range of 149 to 155 °C.
On to `CC(C)=CC(=O)Nc1ccc2ncnc(Nc3cccc(Br)c3)c2c1`, for which the melting point fell in the range of 300 to 301 °C.
Turning to `N=C(NCc1ccco1)NN=Cc1c(Cl)cccc1Cl`, the melting point lay within 134 to 136 °C.
For `CC1C2C(CON2C)CN1c1c(F)cc2c(=O)c(C(=O)O)cn(C3CC3)c2c1F` (centres undefined), the melting point fell in the range of 197 to 199 °C.
For `O=C(/C=C/[C@@H]1[C@H]2CC(=O)O[C@H]2C[C@H]1OC(=O)c1ccccc1)COc1cccc(Cl)c1`, the melting point was 101 to 102 °C.
On to `CCc1nc2c(O)cc(C(=O)N(C)C)cc2n1C`, for which the melting point was 193 to 199 °C.
In turn, `NNC(=O)CCc1cccc(F)c1` came in with a melting point of 109 to 110 °C.
Compound `COc1ccc2c(CC3=C(CC(=O)O)CCCC3=O)cccc2c1C(F)(F)F` came in with a melting point of 69 to 71 °C.
As for `COc1ccc(-c2cc(C(=O)Nc3cccc(F)n3)c3ccccc3n2)cc1`, the melting point lay within 174 to 176 °C.
For `C=CCOc1ccc(C#N)cc1`, the melting point worked out at 41.6 °C.
The compound `COc1ccc2cc(-c3cnccn3)ccc2n1` yielded a melting point of 130 to 132 °C.
Compound `Cc1cc(C)c(C)c(COc2ccccc2-c2ccoc2C(=O)NNC(=O)c2ccc(O)c(C#N)c2)c1C` displayed a melting point of 215 to 217 °C.
Take `CC1(C)Oc2ccc(C#N)cc2[C@@H](N2CCCC2)[C@@H]1O` (relative stereo): the melting point was in the range of 173 to 174 °C.
For the compound `COc1cc(OCC(=O)N2CCOCC2)c(C=CC(=O)c2ccc(C(=O)O)cc2)cc1-c1cccs1`, the melting point was in the range of 231 to 233 °C.
The compound `COc1cc(OC)c2c(=O)[nH]c(-c3cc(C)nc(C)c3)nc2c1` yielded a melting point of 291 to 292 °C.
Turning to `CNS(=O)(=O)/C=C/c1ccc2[nH]cc(C3CCN(C)CC3)c2c1`, the melting point was 190 to 192 °C.
As to `CCCCCS(=O)(=O)NC(=O)/C=C/c1ccc(OCCOC)cc1Oc1ncc(Cl)cc1Cl`, the melting point lay in the range of 119 to 120 °C.
`CC1(C)CCC(C)(C)c2cc(S(=O)(=O)c3ccc(C(=O)O)cc3)ccc21`: the melting point fell in the range of 218 to 220 °C.
Compound `COc1cc2c(c3c1OC(C)(C)C3)C(C)=NC(C)(C)C2` registered a melting point of 112 to 113 °C.
To `CN(Cc1cc2c3c(c1)c(=O)c(C(=O)NCc1ccc(F)cc1)cn3CC(=O)N2C)C[C@@H](O)c1ccccc1` belongs 150 to 152 °C.
`N#CC(C#N)=C1N(CCCN2CCCCC2)CCN1C1CCN(CCF)CC1` gave a melting point of 56 to 57 °C.
Compound `Nc1cc(Cl)c(Br)cc1C(=O)O` came in with a melting point of 228 to 230 °C.
`COc1ccc(N2CCN(CCOCc3ccccc3)C2=O)cc1` came in with a melting point of 54 to 55 °C.
The compound `CCc1cc(C=C[N+](=O)[O-])c(OC)nc1C` gave a melting point of 105 to 107 °C.
To `CCCCOC(=O)C(O)C1OC(n2cnc3c(N)ncnc32)C(O)C1O` (centres undefined) belongs 167 °C.
Turning to `O=C(c1ccc(F)cc1)C1CCN(CCCC2(c3ccc(F)cc3)OCCO2)CC1`, the melting point lay within 62 to 64 °C.
On to `COc1cc(/C=C/C(=O)Nc2ccccc2C(=O)O)ccc1OC1CCCC1`, for which the melting point lay in the range of 96 to 98 °C.
To `O=c1c(Cl)nsnc1Cl` belongs 81 to 82 °C; to `Cc1oc(-c2ccccc2)nc1COc1nn(Cc2ccc(Oc3ccccc3)cc2)cc1C(N)=O`, 158 to 159 °C.
The compound `Cc1cc(Oc2c(Cl)cc(C(F)(F)F)cc2Cl)nn1C(=O)NC(C)(C)C` yielded a melting point of 116 to 117 °C.
Compound `COC(=O)c1ccc(Cc2cn(C)c3ccc(C(=O)O)cc23)c(OC)c1` came in with a melting point of 249 to 251 °C.
In the case of `Nc1c(C(=O)O)c(=O)[nH]c2cc(Cl)ccc12`, the melting point was > 330 °C.
To `N#Cc1c(N2CCN(C(=O)c3cccs3)CC2)c2sccc2n(Cc2cccc(F)c2)c1=O` belongs 271 °C; to `CC(C)(C)c1cc(SCCC(=O)N(C2CCCCC2)C2CCCCC2)cc(C(C)(C)C)c1O`, 168 to 172 °C; to `Fc1ccc2c(-c3ccc(OC[C@H]4CO4)cc3)noc2c1`, 132 to 133 °C.
To `N#CC1CCCc2c(C(=O)O)cccc21` (centres undefined) belongs 177 to 179 °C; to `CN(C)Cc1ccc(CSCCNC2=NS(=O)C(S(C)(=O)=O)=C2N)o1` (centres undefined), 134 to 137 °C.
With `O=CNNc1ccc(NC(=O)c2cccc(N=C=S)c2)cc1`, the melting point is > 290 °C.
To `COc1ccc(-c2c(Cl)c(Cn3cncn3)nc3sc4c(c23)CCN(Cc2ccccc2)C4)cc1OC` belongs 165 to 166 °C; to `COc1ccc(C2=NN(C3CCN(S(=O)(=O)c4ccc(C)cc4)CC3)C(=O)CC2)cc1OC`, 179 to 184 °C; to `CCOC(=O)C=Cc1ccc2cc(C=CC(=O)OCC)ccc2c1`, 150 to 151 °C.
As to `CC(C(=O)O)N(C(=O)OC(C)(C)C)c1ccc([N+](=O)[O-])cc1` (centres undefined), the melting point lay in the range of 100 to 104 °C.
The compound `COc1ccc(-c2cc(-c3ccc(F)cc3)ccc2C(=O)O)cc1OC` had a melting point of 210 °C.
To `CC(=O)c1ccc2c(c1)[C@@H](N1CCCC1=O)[C@H](O)C(C)(C)O2` (relative stereo) belongs 218 to 219 °C; to `c1cc(NC2=NCCO2)c2occc2c1`, 124 to 126 °C; to `CCCN(CCC)S(=O)(=O)c1cccc(C(=O)Nc2cccc([N+](=O)[O-])c2)c1`, 126 to 128 °C.
`CN1C(NCCCO)=NC(c2ccccc2)c2cc(Cl)ccc21` (centres undefined) yielded a melting point of 165 to 166 °C.
`CCCCCCc1ccc2c3ccc(CO)cc3n(C)c2c1`: the melting point lay in the range of 90 to 91 °C.
To `CC(C)(C)NCC(O)c1cc(O)ccc1Cl` (centres undefined) belongs 162 to 163 °C; to `COc1cc(Nc2c(C#N)cnc3cc4cc(OCCCN5CCOCC5)c(OC)cc4cc23)c(Cl)cc1Cl`, 205 to 208 °C; to `C=C(C)C(=O)OCCOc1ccc(-c2cc(OC(=O)C(=C)C)cc(-c3ccc(OCCOC(=O)C(=C)C)cc3)c2)cc1`, 99 °C.
`N#Cc1ccc(N(Cc2ccccc2)n2cnnc2)cc1-c1ccc(OS(N)(=O)=O)cc1` gave a melting point of 157 to 160 °C.
With `CCCc1nc2c(N)nc3cc(Br)ccc3c2n1NC(C)C`, the melting point is 226 to 228 °C.
Turning to `Cc1nnc(-c2ccc3occ(-c4ccccc4F)c3c2)o1`, the melting point was 112 to 113 °C.
To `Cc1ccc(NC(=N)Nc2nc(-c3ccccc3)cs2)cc1` belongs 152 to 153 °C; to `Fc1ccc(-c2nc3ccccn3c2Br)c(F)c1`, 144 °C; to `Fc1cc(I)c2nc[nH]c2c1`, 210 to 211 °C.
Consider `COc1ccc(-c2cnc3[nH]cc(C(N)=O)c3n2)cc1OC`, for which the melting point was 290 to 292 °C.
`CCOC(=O)Cc1c[nH]c2cc(C(F)(F)F)nn2c1=O` returned a melting point of 290 to 293 °C.
Consider `N#Cc1ccc(S(=O)(=O)N2CCN(c3ccncc3)CC2)cc1`, for which the melting point was 212 to 213 °C.
Consider `CCC(CC)Oc1cc(C)nc2c1[nH]c(=O)n2-c1c(C)cc(C)cc1C`, for which the melting point is 184 to 186 °C.
The compound `C=CCOc1ccccc1OCCOS(C)(=O)=O` showed a melting point of 61 to 63 °C.
`COc1nc2cccccc-2n1` registered a melting point of 94 °C.
Regarding `CC(=O)NCCN1CCCc2ccc(C)cc21`, the melting point was 99 °C.
Turning to `CCCOC(=O)C1=C(N)NC(C)=C(C(=O)OC(C)C)C1c1cccc([N+](=O)[O-])c1` (centres undefined), the melting point came out at 199 °C.
`CCCCc1c(Cl)nc(O)nc1Cl` registered a melting point of 73 to 75 °C.
As to `O=[N+]([O-])c1ccc(-c2ccc3nncn3n2)cc1C(F)(F)F`, the melting point was in the range of 129 to 135 °C.
In turn, `CCOC(=O)CCc1c[nH]c2cnc(-n3cncn3)cc12` showed a melting point of 129 to 131 °C.
`N=C(NO)c1cccc(COC(=O)c2cc3ccccc3n2Cc2cccc(C(=N)NO)c2)c1` came in with a melting point of 114 to 116 °C.
On to `CC[C@H]1[C@H](O)CN1c1cc2c(cc1F)c(=O)c(C(=O)O)cn2C1CC1` (relative stereo), for which the melting point lay within 250 to 255 °C.
To `COc1cccc2ccc(CC#N)cc12` belongs 47 to 48 °C; to `CCc1cc(Br)c2c(O)c(C(=O)OC)c(C(=O)OC)nc2c1`, 207 to 208 °C; to `O=C(O)c1ccc2cc(-c3cc4ccccc4o3)ccn2c1=O`, > 250 °C.
In turn, `CCC(=O)Nc1c(Sc2cc(C)cc(C)c2)c(C)c[nH]c1=O` registered a melting point of 186 to 188 °C.
`CNC(=O)Nc1ccc(OCC2CCN(c3ccncc3)CC2)cc1`: the melting point lay in the range of 222 to 224 °C.
With `CCc1nc2sc(S(N)(=O)=O)cc2c(=O)n1-c1ccccc1Cl`, the melting point worked out at 253 °C.
`CCOC(=O)[C@H](Cc1c[nH]c2ccccc12)NC(=O)OCc1ccccc1` yielded a melting point of 80 to 83 °C.
The compound `CC(c1cccnc1)c1c[nH]c(=S)[nH]c1=O` (centres undefined) yielded a melting point of 225 to 228 °C.
With `Cc1cccc(NC(=S)NC2N=C(c3ccccc3F)c3ccccc3N(CC(=O)N3CC4CCC(CC4)C3)C2=O)c1` (racemic), the melting point lay within 129 to 134 °C.
`CN(C(=O)N1CCOCC1)c1ccc(OCC(=O)N[C@@H](CC(N)=O)C(=O)N[C@@H](Cc2ccccc2)[C@H](O)C(=O)N2CCC[C@H]2C(=O)NC(C)(C)C)cc1` showed a melting point of 112 to 114 °C.
`COCN(c1cccc2cc(C(N)=O)n(COC)c12)S(=O)(=O)c1cccs1` gave a melting point of 203 to 204 °C.
Compound `CCOC(=O)c1cnc2c(NC(=O)c3c(Cl)cccc3Cl)cccc2c1COC(C)=O` yielded a melting point of 138 to 142 °C.
`CCCc1nc(OC)c(NC(=O)N2CCN(c3cc(C)cc(C)c3)CC2)cc1C` showed a melting point of 138 to 139 °C.
To `C=CCC(C(=O)OC)C(=O)c1cccnc1` (centres undefined) belongs 112 to 113 °C; to `CC(=O)c1ccc(S)cc1OCC(=O)O`, 149 to 150 °C; to `O=S(=O)(NC1CCCCC1)c1ccc2c(c1)S(=O)(=O)NC1CCCN21` (centres undefined), 195 to 197 °C.
`NS(=O)(=O)c1cccc(C(=O)CCl)c1` came in with a melting point of 118 °C.
On to `CCCCNC(=O)[C@H](C)C[C@H](O)[C@H](CC1CCCCC1)NC(=O)[C@H](Cc1cscn1)NC(=O)OC(C)(C)C`, for which the melting point was in the range of 172 to 174 °C.
Regarding `COc1cc(CC(=O)NCCOCc2ccc(C)c(C)c2)ccc1OCCN`, the melting point fell in the range of 60 to 62 °C.
